Patent publication US11344523B2, “Composition for use in treating rotavirus infection” (Devenish Nutrition Limited, priority 2016, dated 2022)

Tests used:
[1] = tested on: Porcine Respiratory and Reproductive Syndrome Virus (PRRSV); assay: Virucidal effect on PRRSV, virus/treatment titration read by immunofluorescence; format: cell-based; conditions: 200 mM
Description: (§1) Carboxylic acids were obtained from David Garnett of Pathway Intermediates Ltd or from Sigma-Aldrich Co. LLC; and compositions were prepared in a Class II cabinet at room temperature in Hank's Balanced Salt Solution (Thermo Fisher Scientific Inc.) or ethanol by vortexing strongly to emulsify at a stock concentration of 1M. Stock concentrations were diluted to working concentrations e.g. of […] by serial dilution using Minimum Essential Medium (MEM) cell culture medium (Thermo Fisher Scientific Inc.) containing 2 mM L-Glutamine (Gibco Life Technologies Ltd.), and 100 μg/500 ml gentamycin (Lonza Group Ltd.).
MARC145 cells were obtained from the Centre of Cell Cultures, Istituto Zooprofilattico Sperimentale Brescia, Italy and were maintained in Minimum Essential Medium (MEM) cell culture medium (Thermo Fisher Scientific Inc.) containing 2 mM L-Glutamine (Gibco Life Technologies Ltd.), 10% foetal calf serum (PAN-Biotech GmbH), and 100 μg/500 ml gentamycin (Lonza Group Ltd.).
(§2) In general, cells were seeded as at a density of 0.313e4-5.000e4 cells per 1 ml of cell suspension in growth medium, dispensed in to a SPL 24-Well Cell Culture Plate (SPL Life Sciences Co., Ltd.) in replicates of 3, each containing Academy Circular Cover Slips (Academy Science) and incubated overnight at 37° C. at 5% CO2. […]

[2] = tested on: porcine circovirus (PCV2); assay: Virucidal effect on PCV2 in PK15A cells; format: cell-based, Porcine circovirus type 2; conditions: at either 100 or 200 mM
Porcine Rotavirus [3] = assay: Virucidal effect on porcine rotavirus in MA104 cells; format: cell-based; conditions: for Titre: incubation 30 mins, DMSO ✓, control titres ETOH −4, PBS −4
Description: as §1
MA104 cells were obtained from ECACC and were maintained in Minimum Essential Medium (MEM) cell culture medium (Thermo Fisher Scientific Inc.) containing 2 mM L-Glutamine (Gibco Life Technologies Ltd.), 10% foetal calf serum (PAN-Biotech GmbH), and 100 μg/500 ml gentamycin (Lonza Group Ltd.).
(§3) In general, cells were seeded as at a density of 0.313e4-5.000e4 cells per 1 ml of cell suspension in growth medium, dispensed in to a SPL 24-Well Cell Culture Plate (SPL Life Sciences Co., Ltd.) in replicates of 3, each containing Academy Circular Cover Slips (Academy Science) and incubated overnight at 37° C. at 5% CO2. The growth medium was removed and replaced with 1 ml of Minimum Essential Medium (MEM) cell culture medium (Thermo Fisher Scientific Inc.) containing 2 mM L-Glutamine (Gibco Life Technologies Ltd.), and 100 μg/500 ml gentamycin (Lonza Group Ltd.) for treatment.
(§4) Porcine rotavirus was PROSYSTEM® ROTA PORCINE ROTAVIRUS VACCINE (Merck Animal Health).
Prior to treatment, the cells and coverslips were washed three times with Minimum Essential Medium (MEM) cell culture medium (Thermo Fisher Scientific Inc.) containing 2 mM L-Glutamine (Gibco Life Technologies Ltd.), and 100 μg/500 ml gentamycin (Lonza Group Ltd.). […]

[4] = tested on: infectious bovine rhinotracheitis virus (IBRV); assay: Virucidal effect on IBRV, virus/treatment titration read by immunofluorescence; format: cell-based, Infectious bovine rhinotracheitis virus (Bovine Herpes 1); conditions: 100 mM
Description: as §1
MDBK cells were obtained from ECACC and were maintained in Minimum Essential Medium (MEM) cell culture medium (Thermo Fisher Scientific Inc.) containing 2 mM L-Glutamine (Gibco Life Technologies Ltd.), 10% foetal calf serum (PAN-Biotech GmbH), 100 μg/500 ml gentamycin (Lonza Group Ltd.), and 1% essential non essential amino acids (Sigma-Aldrich Co. LLC.).
as §2

Porcine Rotavirus [5] = assay: Virucidal effect on porcine rotavirus in primary pig kidney cells; format: cell-based; conditions: total carboxylic acid concentration of 200 mM; for Result Replicate 2: controls PBS −5, ETHANOL −4; for Result Replicate 3: controls PBS −5, ETHANOL −5
Description: as §1
A primary pig kidney (PPK) cell line was sourced from a kidney of a sacrificed piglet from the Agri-Food and Biosciences Institute (AFBI Hillsborough, UK). The kidney tissue was trypsinised to create a PPK cell line, which was maintained in Minimum Essential Medium (MEM) cell culture medium (Thermo Fisher Scientific Inc.) containing 2 mM L-Glutamine (Gibco Life Technologies Ltd.), 10% foetal calf serum (PAN-Biotech GmbH), and 100 μg/500 ml gentamycin (Lonza Group Ltd.).
as §3, §4
Prior to treatment, the cells and coverslips were washed three times with Minimum Essential Medium (MEM) cell culture medium (Thermo Fisher Scientific Inc.) containing 2 mM L-Glutamine (Gibco Life Technologies Ltd.), and 100 μg/500 ml gentamycin (Lonza Group Ltd.). 100 μl of the virus at a titre of 10^9 TCID50/100 μl by the Reed-Muench method, and 100 μl of the treatment samples, were incubated for 30 mins at 37° C. at 5% CO2 The reaction was stopped by adding 800 μl of Minimum Essential Medium (MEM) cell culture medium (Thermo Fisher Scientific Inc.) containing 2 mM L-Glutamine (Gibco Life Technologies Ltd.), and 100 μg/500 ml gentamycin (Lonza Group Ltd.). Each treatment/virus was titrated out, initially 100 μl of each treatment was added to 900 μls of Minimum Essential Medium (MEM) cell culture medium (Thermo Fisher Scientific Inc.) containing 2 mM L-Glutamine (Gibco Life Technologies Ltd.), and 100 μg/500 ml gentamycin (Lonza Group Ltd.) to prepare a 10^−1 dilution. The 10^−1 dilution was then diluted in serial dilutions down to 10^−6 in the same medium 100 μl of media was then added to each appropriate well in replicates of 3 and incubated for 36 hours at 37° C. at 5% CO2 Ethanol or PBS were used as control treatments. Untreated cells were used as negative controls.
After incubation, coverslips were harvested. Each slip was harvested by lifting out of the medium with forceps then rinsing and fixing by dipping sequentially into glass universal bottles of PBS, acetone, and lastly acetone. The slip was then placed cells side up in a glass Petri dish of acetone in a Class II cabinet at room temperature for 10 minutes. […]

| Structure (SMILES) | reduction in titre [1] [log10] | susceptibility of virus to treatment [2] | reduction in titre (Porcine Rotavirus [3]; 200 mM) [log 10] | Titre (Porcine Rotavirus [3]; Expt 1, FA conc 100 mM) | Titre (Porcine Rotavirus [3]; Expt 2, FA conc 200 mM) | reduction in titre [4] [log10] | Result Replicate 2 (Porcine Rotavirus [5]) | Result Replicate 3 (Porcine Rotavirus [5]) |
| --- | --- | --- | --- | --- | --- | --- | --- | --- |
| CCCC(=O)[O-].[Na+] [Treatment A, Sodium butyrate] | 3.5 | not susceptible | 2 | −4 | −2 | 4 | – | – |
| CCCC(=O)O [Butyric Acid C4 (1M), Butyric Acid] | – | – | – | – | – | – | −ve | −ve |
| CCCCCCCCCCCC(=O)O [Dodecanoic acid/Lauric C12 (1M), Dodecanoic acid] | – | – | – | – | – | – | −ve | −1 |
| CCCCCCCC(=O)O [Octanonic Acid/Caprylic C8 (1M), octanoic acid] | – | – | – | – | – | – | −2 | −1 |
| CCCCCCCCCC(=O)O [Decanoic Acid/Capric C10 (1M), Decanoic Acid] | – | – | – | – | – | – | −1 | −ve |
